Reference: article PMC8402032, “Unsymmetric Cisplatin-Based Pt(IV) Conjugates Containing a PARP-1 Inhibitor Pharmacophore Tested on Malignant Pleural Mesothelioma Cell Lines” (Molecules, 2021)

Columns and labels:
[1] = test system: REN (epithelioid) malignant pleural mesothelioma cells; experiment: Cell viability assay (Trypan blue dye exclusion), REN; assay type: cell-based, human; conditions: 72 h treatment
Method: Complexes 6–9 were tested on a panel of human MPM cell lines together with CDDP and SAA1, added for comparison (Table 1). The half-maximal inhibitory concentration, IC50, was determined on MSTO-211H (biphasic phenotype), REN (epithelioid), BR95 (epithelioid), and MM98 (sarcomatoid) cancer cell lines to identify the most promising Pt(IV) conjugate to be further investigated. To determine the number of viable cells, the use of the dye exclusion assay was preferred to the colorimetric assay because of the heterogeneity in the energy metabolism between the different MPM cell lines. This may justify minor differences with respect to the previously published IC50 for CDDP [40].
Cells were seeded at a density of 10 × 10^4 cells per well in 6-well plates in RPMI medium supplemented with 10% fetal bovine serum (FBS), 100 μg mL^−1 streptomycin, and 10 μg mL^−1 penicillin and incubated overnight at 37 °C in a humidified environment containing 5% CO2 to allow adherence. Cisplatin was dissolved in 0.9% w/v aqueous NaCl brought to pH = 3 with HCl (final stock concentration 1 mM). The Pt(IV) complexes were dissolved in DMSO (final stock concentration 5 mM); the resulting solutions were microfiltered (0.45 μm) and their Pt content was checked by ICP-MS (see Section 3.5.2). These mother solutions were diluted in complete medium to the required concentration range.
Following 72 h of treatment with the diluent of the compound (Ctrl) or different doses of the Pt compounds, cells were trypsinized and stained with Trypan blue. The number of cells considered viable (unstained cells) was counted in a Bürker haemocytometer within 5 min after staining.

[2] = biological target: T1, PARP-1 (Homo sapiens, UniProt P09874); experiment: Cellular thermal shift assay (CETSA) for in-cell PARP-1 target engagement; assay type: binding; conditions: MSTO-211H intact cells, 50 µM, 15 min; 52, 56 and 60 °C
T1 construct: endogenous in cells; host or cells: MSTO-211H cells
T1 sequence (P09874 whole entry): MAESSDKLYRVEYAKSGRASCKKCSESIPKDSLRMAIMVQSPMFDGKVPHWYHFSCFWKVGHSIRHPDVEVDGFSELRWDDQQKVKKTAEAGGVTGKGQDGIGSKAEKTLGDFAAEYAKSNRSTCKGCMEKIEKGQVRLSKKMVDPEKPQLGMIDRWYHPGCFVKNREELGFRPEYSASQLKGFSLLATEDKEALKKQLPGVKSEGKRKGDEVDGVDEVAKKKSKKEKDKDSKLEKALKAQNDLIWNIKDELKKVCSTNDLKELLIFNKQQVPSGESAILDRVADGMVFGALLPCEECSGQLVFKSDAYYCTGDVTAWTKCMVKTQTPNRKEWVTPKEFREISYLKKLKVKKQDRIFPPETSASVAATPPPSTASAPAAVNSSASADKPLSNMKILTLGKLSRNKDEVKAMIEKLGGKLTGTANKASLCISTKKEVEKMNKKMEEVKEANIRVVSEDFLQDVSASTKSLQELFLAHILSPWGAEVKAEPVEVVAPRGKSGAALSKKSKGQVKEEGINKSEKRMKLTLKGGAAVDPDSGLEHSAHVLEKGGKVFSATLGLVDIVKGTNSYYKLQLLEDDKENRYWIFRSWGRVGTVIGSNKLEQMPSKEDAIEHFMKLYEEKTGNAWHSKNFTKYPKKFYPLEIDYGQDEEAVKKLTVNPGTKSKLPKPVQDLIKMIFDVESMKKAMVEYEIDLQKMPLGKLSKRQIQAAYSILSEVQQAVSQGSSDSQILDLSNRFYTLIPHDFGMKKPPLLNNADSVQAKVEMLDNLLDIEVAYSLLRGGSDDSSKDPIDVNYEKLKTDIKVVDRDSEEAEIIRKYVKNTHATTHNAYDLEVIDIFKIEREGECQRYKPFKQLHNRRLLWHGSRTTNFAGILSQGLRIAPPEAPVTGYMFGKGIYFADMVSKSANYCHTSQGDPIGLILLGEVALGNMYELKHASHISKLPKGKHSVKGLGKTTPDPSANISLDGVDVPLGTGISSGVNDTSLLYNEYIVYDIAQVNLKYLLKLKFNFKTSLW
Excerpt: In order to confirm that PARP-1 is the direct target of 6, the cellular thermal shift assay (CETSA®) was employed. This assay is based on the biophysical principle of ligand-induced thermal stabilization of target proteins. Indeed, ligand-bound proteins are stabilized by their interacting partner and melt at a higher temperature with respect to the native protein. The test involves the drug treatment of the cellular system of choice, the heating of the cell to different temperatures, and the quantification of the presence of target protein in the soluble fraction by Western blotting to validate and quantify target engagement of drugs in cells and tissues.
Multiple aliquots of MSTO-211H intact cells, previously incubated with the diluent, 3-ABA or 6, were heated to different temperatures ranging from 48 °C to 60 °C. After lysis, the soluble fractions were analyzed by SDS-PAGE followed by Western blot. In Figure 6, the stabilities of 6 and 3-ABA, at 52, 56, and 60 °C, are compared.
For the intact cell experiments, MSTO-211H cells were treated with the diluent of the compound (Ctrl) or 6 (50 µM) in complete medium for 15 min at 37 °C, in a humidified environment containing 5% CO2. […] The supernatants were then analyzed by SDS-PAGE followed by Western blot analysis as previously described. […]

[3] = test system: MSTO-211H cells; experiment: γH2AX foci immunofluorescence; assay type: cell-based, human; conditions: 5 µM, 72 h
Method: This is in tune with the activation by reduction mechanism (Scheme 1) that is able to generate CDDP in the cells.
MSTO-211H cells were plated on slides and treated for 72 h with diluent or 5 μM complex 6. Slides were then fixed for 20 min with 4% paraformaldehyde (Sigma-Aldrich), rinsed with PBS, and then the cells were permeabilized for 5 min in 0.1% Triton X-100, followed by three 5 min PBS washes. Slides were treated thrice for 10 min in a blocking solution of 5% bovine serum albumin (BSA) (Invitrogen). Mouse anti-γH2AX antibody (Millipore) was added (1:100 in 1% BSA) and incubated for 1 h in a dark, humidified environment at room temperature. Slides were then exposed to a secondary goat anti-mouse antibody, FITC (1:100 in PBS) and incubated for 1 h in the dark, humidified environment at room temperature. Slides were rinsed thrice in PBS, mounted, and cell imaged with a Leica fluorescence microscope.
Figure 4 (A) Representative Western blot showing poly(ADP-ribose) (PAR) and PARP-1 expression following 72 h MSTO-211H cell treatment with diluent (Ctrl) or 5 µM concentrations of cisplatin (CDDP), 6, CDDP + 3-ABA combination (1:1 ratio), and 3-ABA alone. HSC70 protein was used as loading control. (B) Immunocytochemistry was used to capture representative γH2AX focus images following 72 h MSTO-211H cell treatment with diluent (Ctrl) or 5 µM of complex 6.

Compound: CC(=O)[O][Pt]([NH2])([NH2])([Cl])([Cl])[O]C(=O)CCNC(=O)c1cccc(NC(=O)OCC2c3ccccc3-c3ccccc32)c1 [Compound 6, (OC-6-44)-Acetato[3-(3-(fmoc-amino)-benzamido)-propanoato]-diammine-dichlorido-platinum(IV)]
- ratio IC50 (cisplatin)/IC50 (Pt(IV) complex), REN [1]: 1.9
- IC50 ([1]; mean ± sd): 1590 ± 70 nM
- thermal stability of PARP-1 protein levels [2]: more stable to heating as compared with the control and 3-ABA groups
- DNA damage (γH2AX foci) [3]: increased number of γH2AX foci
